Biological target: Dual specificity tyrosine-phosphorylation-regulated kinase 1A (Homo sapiens, UniProt Q13627)
Experiment: DYRK1A Inhibition Assay
Procedure: 1. Add 5 μL enzyme & substrate mixture to each well in Column 2-23 and A24-H24 wells of the 384-well assay plate;2. Add 5 μL 0% Phosphorylation control to A1-H1 and I24-P24 wells of the assay plate;3. Add 5 μL 100% Phosphorylation control to I1-P1 wells of the assay plate;4. Spin the assay plate (1000 rpm, 1 minute @23° C.);5. Incubate enzyme with compounds for 15 minutes at 23° C.;6. Add 5 μL ATP solution to each well of the assay plate;7. Spin the plate (1000 rpm, 1 minute @23° C.);8. Incubate the assay plate for 90 minutes at 23° C.;9. Add 10 μL Development reagent A to each well of the assay plate;10. Centrifuge the plate at 1000 rpm about 15 seconds and seal a film over assay plate. Incubate the assay plate for 30 minutes at 23° C.11. Read assay plates on Envision (see Tables A, B, and C).Final Compound ConcentrationsAssay buffer: 50 mM Hepes pH7.5, 10 mM MgCl2, 1 mM EDTA, 0.01% Brij-35DYRK1A: 1 nMATP: 20 μMSer/Thr 18 peptide: 2 μMReaction time: 90 minutes.

Row | SMILES | IC50 [nM]
1 | N#Cc1cccc(Oc2cncc3ccc(-c4cnc5ccccn45)cc23)c1 [US20250066318, Compound I.6] | 550
2 | O=C(O)[C@H]1C[C@H](Nc2c(-c3cncs3)ccc3cnccc23)C1 [US20250066318, Compound I.67] | > 1000
3 | O=C(O)[C@H]1C[C@@H](Nc2c(-c3cncs3)ccc3cnccc23)C1 [US20250066318, Compound I.68] | 550
4 | O=C(O)[C@H]1C[C@@H](Oc2c(-c3cncs3)ccc3cnccc23)C1 [US20250066318, Compound I.69] | 550
5 | O=C(O)[C@H]1C[C@H](Oc2c(-c3cncs3)ccc3cnccc23)C1 [US20250066318, Compound I.70] | 550
6 | Cc1ncc2ccc(-c3cncs3)cc2c1OC1CN(C)C1 [US20250066318, Compound I.76] | 550
7 | Cc1ncc2ccc(-c3cnn(C)c3)cc2c1OC1CNC1 [US20250066318, Compound I.77] | 55
8 | Cc1ncc2ccc(-c3cnn(C)c3)cc2c1OC1CN(C)C1 [US20250066318, Compound I.78] | 55
9 | O=C(O)C1CCN(Cc2cncc3ccc(-c4cnn5cc(C(F)(F)F)ccc45)cc23)CC1 [US20250066318, Compound I.88] | 550
10 | CC(=O)N1CCN(Cc2cncc3ccc(-c4cnn5cc(C(F)(F)F)ccc45)cc23)CC1 [US20250066318, Compound I.89] | 55
11 | N#Cc1cncc2ccc(-c3cnc(C#CC4CCOCC4)s3)cc12 [US20250066318, Compound I.94] | 550
12 | C(#CC1CCOCC1)c1ncc(-c2ccc3cnc(OC4CCNCC4)cc3c2)s1 [US20250066318, Compound I.98] | 550
13 | CC(=O)N1CCC(Oc2cc3cc(-c4cnc(C#CC5CCOCC5)s4)ccc3cn2)CC1 [US20250066318, Compound I.99] | > 1000
14 | CN1CCC(Oc2cc3cc(-c4cnc(C#CC5CCOCC5)s4)ccc3cn2)CC1 [US20250066318, Compound I.100] | 550
15 | CC(=O)N1CCN(Cc2cc3cc(-c4cnc(C#CC5CCOCC5)s4)ccc3cn2)CC1 [US20250066318, Compound I.101] | > 1000
16 | CN(C)[C@H]1CC[C@H](Oc2cc3cc(-c4cnc(C#CC5CCOCC5)s4)ccc3cn2)CC1 [US20250066318, Compound I.102] | > 1000
17 | CN(C)[C@H]1CC[C@@H](Oc2cc3cc(-c4cnc(C#CC5CCOCC5)s4)ccc3cn2)CC1 [US20250066318, Compound I.103] | > 1000
18 | CC(C)CN1CCC(C#Cc2ncc(-c3ccc4cnc(Cl)cc4c3)s2)CC1 [US20250066318, Compound I.104] | 55
19 | CC(C)CN1CCC(C(=O)Nc2ncc(-c3ccc4cnc(C5CC5)cc4c3)s2)CC1 [US20250066318, Compound I.105] | 55
20 | Cn1cc(-c2ccc3cnc(C#CC4CCNCC4)cc3c2)cn1 [US20250066318, Compound I.106] | 55
21 | CN1CCC(C#Cc2cc3cc(-c4cnn(C)c4)ccc3cn2)CC1 [US20250066318, Compound I.107] | 55
22 | Cn1cc(-c2ccc3cnc(C#CC4CCOCC4)cc3c2)cn1 [US20250066318, Compound I.108] | 55
23 | CN1CCc2c(c(-c3cnc4c(-c5ccc(C#N)cc5)cnn4c3)cn(C)c2=O)C1 [US20250066318, Compound II.43] | > 1000
24 | Cn1c(C2CCNCC2)cn2ncc(-c3ccc(C#N)cc3)c2c1=O [US20250066318, Compound II.44] | 625
25 | CN1CCC(c2cn3ncc(-c4ccc(C#N)cc4)c3c(=O)n2C)CC1 [US20250066318, Compound II.45] | 625
26 | CN1CC=C(c2cn3ncc(-c4ccc(C#N)cc4)c3c(=O)[nH]2)CC1 [US20250066318, Compound II.46] | 175

Results, then the molecule that gave them:

Row | IC50 [nM] | SMILES
27 | 55 | Cc1c(F)ncc2ccc(-c3cnn(C)c3)cc12 [US20250066318, Compound I.64]
28 | 55 | O=C(O)[C@H]1C[C@@H](Nc2ncc(-c3ccc4cnccc4c3)s2)C1 [US20250066318, Compound I.71]
29 | < 10 | O=C(O)C1CN(c2cn3ncc(-c4ccc5cnccc5c4)c3cn2)C1 [US20250066318, Compound I.73]
30 | 55 | O=C(O)C1CC(Nc2cc3cc(-c4cncs4)ccc3cn2)C1 (stereo not drawn) [US20250066318, Compound I.74]
31 | 55 | Cc1ncc2ccc(-c3cncs3)cc2c1OC1CNC1 [US20250066318, Compound I.75]
32 | < 10 | Cc1ncc2ccc(-c3cncs3)cc2c1O[C@H]1C[C@@H](O)C1 [US20250066318, Compound I.79]
33 | < 10 | Cc1ncc2ccc(-c3cncs3)cc2c1O[C@H]1C[C@H](O)C1 [US20250066318, Compound I.80]
34 | < 10 | Cc1ncc2ccc(-c3cnn(C)c3)cc2c1O[C@H]1C[C@@H](O)C1 [US20250066318, Compound I.81]
35 | < 10 | Cc1ncc2ccc(-c3cnn(C)c3)cc2c1O[C@H]1C[C@H](O)C1 [US20250066318, Compound I.82]
36 | < 10 | Cn1cc(-c2ccc3cnc(NC(=O)OC4(C)CC4)cc3c2)cn1 [US20250066318, Compound I.83]
37 | < 10 | CS(=O)(=O)N1CCC(Oc2cncc3ccc(-c4cnn5cc(C(F)(F)F)ccc45)cc23)CC1 [US20250066318, Compound I.85]
38 | < 10 | CC(=O)N1CCC(Oc2cncc3ccc(-c4cnn5cc(C(F)(F)F)ccc45)cc23)CC1 [US20250066318, Compound I.86]
39 | < 10 | Cn1cc(C#Cc2ncc(-c3ccc4cnccc4c3)s2)ccc1=O [US20250066318, Compound I.92]
40 | < 10 | COc1cncc2ccc(-c3cnn4cc(-c5ccc(=O)n(C)c5)cnc34)cc12 [US20250066318, Compound I.93]
41 | < 10 | C(#CC1CCOCC1)c1ncc(-c2ccc3cncc(OC4CCNCC4)c3c2)s1 [US20250066318, Compound I.95]
42 | < 10 | CC(=O)N1CCC(Oc2cncc3ccc(-c4cnc(C#CC5CCOCC5)s4)cc23)CC1 [US20250066318, Compound I.96]
43 | < 10 | CN1CCC(Oc2cncc3ccc(-c4cnc(C#CC5CCOCC5)s4)cc23)CC1 [US20250066318, Compound I.97]

Source: BindingDB's records for patent US20250066318 (Prothena Biosciences, 2025)
